Our source for the Kd and DC50 values is patent publication US20250032625A1, “HETEROBIFUNCTIONAL MOLECULES AS TEAD INHIBITORS” (Merck Patent GmbH, priority 2021, published 2025).

Read-outs that look alike come from different tables or passages of the source.

One assay concerns the target hsTEAD1 (209-426) (Homo sapiens (Human), UniProt P28347). The assay can be described thus: Surface Plasmon Resonance (SPR) assay. The following applies: Biacore 4000, 15° C., 1:1 Langmuir model, read-out: KD TEAD1 (209-426). The assay is classed as binding. How it is done: The kinetic and affinity parameters of protein-exemplary compound interactions were evaluated by SPR. hsTEAD1 (209-426) was immobilized onto a CM7 (Series S) sensor chip via the standard amine coupling procedure, at 15° C. Prior to immobilization, the carboxymethylated surface of the chip was activated with 400 mM 1-ethyl-3-(3-dimethylaminopropyl)-carbodiimide and 100 mM N-hydroxysuccinimide for 10 min. hsTEAD1 (209-426) was diluted to 11 μg/mL in 10 mM Bis-Tris at pH 6.5 and immobilized on the activated surface chip for 8 and 10 min, in order to reach 6000 to 9000 response units (RU). The remaining activated carboxymethylated groups were blocked with a 7 min injection of 1 M ethanolamine pH 8.5 after which the surface chip was washed with 0.5% (w/v) sodium dodecyl sulphate and 50 mM glycine. HBS-N, which consists of 10 mM HEPES pH 7.4 and 150 mM NaCl, was used as the background buffer during immobilization. Exemplary compounds were prediluted in DMSO, diluted 1:50 in running buffer (20 mM Tris pH 7.4, 150 mM NaCl, 1 mM DTT, 5 mM MgCl2, 0.1 mM EGTA, 0.05% CHAPS) and injected at ten different concentrations using two-fold dilution series, from 100 μM to 0.2 μM. A DMSO solvent correction (1%-3%) was performed to account for variations in bulk signal and to achieve high-quality data. Interaction analysis cycles consisted of a 240 sec sample injection (30 μL/min; association phase) followed by 600 sec of buffer flow (dissociation phase).
All sensorgrams were processed by first subtracting the binding response recorded from the control surface (reference spot), followed by subtracting of the buffer blank injection from the reaction spot. All datasets were fit to a simple 1:1 Langmuir interaction model to determine the kinetic rate constants, KD. Experiments were performed on a Biacore 4000 (Cytiva, Uppsala, Sweden) at 15° C. and the interactions were evaluated using the provided Biacore 4000 evaluation software.
A general note: SPR reads the build-up and loss of mass on a sensor chip optically.

Another assay has as its target TEAD1 in SK-HEP1 cells (Homo sapiens (Human), UniProt P28347). Description: TEAD degradation in SK-HEP1 cell line (immunofluorescence). The assay is classed as cell-based. The procedure, abridged: (§1)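 SK-HEP1 and NCI-H226 cells were treated in duplicate for 16 or 24 h at 37 °C with compound (10 points, 1:3, top 30 µM final). After fixation, TEAD1 was immunostained with anti-TEF1 and per-cell fluorescence quantified by high-content imaging. DC50 from curve fitting.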

A further assay addresses TEAD1 in NCI-H226 cells (Homo sapiens (Human), UniProt P28347). The assay can be described thus: TEAD degradation in NCI-H226 cell line (immunofluorescence). The assay is classed as cell-based. The procedure, abridged:
as §1

The mark [1] stands for this setting: 24 hours, ranges, read-out: DC50 SK-HEP1.
The mark [2] stands for this setting: 24 hours, ranges, read-out: DC50 NCI-H226.

Chain of TEAD1 in NCI-H226 cells (P28347 whole entry): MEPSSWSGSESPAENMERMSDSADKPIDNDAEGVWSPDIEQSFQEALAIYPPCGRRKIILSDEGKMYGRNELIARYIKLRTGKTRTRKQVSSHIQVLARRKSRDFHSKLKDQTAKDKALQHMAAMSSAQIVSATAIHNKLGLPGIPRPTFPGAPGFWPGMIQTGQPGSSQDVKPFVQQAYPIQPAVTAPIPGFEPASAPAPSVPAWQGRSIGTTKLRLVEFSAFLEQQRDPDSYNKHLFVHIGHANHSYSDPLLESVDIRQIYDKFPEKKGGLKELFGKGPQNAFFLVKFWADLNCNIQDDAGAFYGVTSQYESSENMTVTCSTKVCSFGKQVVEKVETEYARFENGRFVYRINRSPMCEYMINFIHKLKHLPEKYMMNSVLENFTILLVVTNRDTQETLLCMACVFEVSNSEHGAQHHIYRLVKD
Chain of TEAD1 in SK-HEP1 cells (P28347 whole entry): as above
Chain of hsTEAD1 (209-426) (P28347 209-426): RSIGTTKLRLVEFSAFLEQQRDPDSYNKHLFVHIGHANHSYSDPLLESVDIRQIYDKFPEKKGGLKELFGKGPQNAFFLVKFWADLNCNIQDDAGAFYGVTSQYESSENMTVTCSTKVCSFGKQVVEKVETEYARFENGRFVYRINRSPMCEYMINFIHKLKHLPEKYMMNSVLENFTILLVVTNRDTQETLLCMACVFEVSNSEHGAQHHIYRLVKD

Turning to `Cn1cc2c3cc(C(=O)NCCOCCOCCNC(=O)CCCNc4cccc5c4CN(C4CCC(=O)NC4=O)C5=O)ccc3n(-c3ccc(C(F)(F)F)cc3)c2n1` (stereo not shown) [Compound 14, 4-{[2-(2,6-dioxopiperidin-3-yl)-1-oxo-2,3-dihydro-1H-isoindol-4-yl]amino}-N-(2-{2-[2-({2-methyl-8-[4-(trifluoromethyl)phenyl]-2H,8H-pyrazolo[3,4-b]indol-5-yl}formamido)ethoxy]ethoxy}ethyl) butanamide], on hsTEAD1 (209-426), the Kd – broadly, the free concentration of one partner at which half of the binding sites on the other are occupied at equilibrium, for simple one-to-one binding – turned out to be 482 nM.

In the case of `CN1C(=O)CCC(N2C(=O)c3cccc(NC(=O)COCCOCCOCCOCCNC(=O)c4ccc5c(c4)c4cn(C)nc4n5-c4ccc(C(F)(F)F)cc4)c3C2=O)C1=O` (stereo not shown) [Compound 36, N-[2-(1-methyl-2,6-dioxopiperidin-3-yl)-1,3-dioxo-2,3-dihydro-1H-isoindol-4-yl]-14-({2-methyl-8-[4-(trifluoromethyl)phenyl]-2H,8H-pyrazolo[3,4-b]indol-5-yl}formamido)-3,6,9,12-tetraoxatetradecanamide], the Kd on hsTEAD1 (209-426) came to 980 nM.

Consider `Cn1cc2c3cc(C(=O)NCCOCCOCCNC(=O)CCCCNc4cccc5c4CN(C4CCC(=O)NC4=O)C5=O)ccc3n(-c3ccc(C(F)(F)F)cc3)c2n1` (stereo not shown) [Compound 9, 5-{[2-(2,6-dioxopiperidin-3-yl)-1-oxo-2,3-dihydro-1H-isoindol-4-yl]amino}-N-(2-{2-[2-({2-methyl-8-[4-(trifluoromethyl)phenyl]-2H,8H-pyrazolo[3,4-b]indol-5-yl}formamido)ethoxy]ethoxy}ethyl) pentanamide], for which the DC50 (in general, the concentration giving 50% degradation) on TEAD1 in SK-HEP1 cells (24 h incubation, read-out: DC50 SK-HEP1 24 h) is 2400 nM; at TEAD1 in SK-HEP1 cells (setting [1]), 1000 to 3000 nM; at TEAD1 in NCI-H226 cells (24 h incubation, read-out: DC50 NCI-H226 24 h), 30000 nM. On hsTEAD1 (209-426), the Kd was 970 nM.

Take `CN(CCOCCOCCOCCOCCNC(=O)c1ccc2c(c1)c1cn(C)nc1n2-c1ccc(C(F)(F)F)cc1)c1cccc2c1C(=O)N(C1CCC(=O)NC1=O)C2=O` (stereo not shown) [Compound 80, N-{2-[2-(2,6-dioxopiperidin-3-yl)-1,3-dioxo-2,3-dihydro-1H-isoindol-4-yl]-5,8,11,14-tetraoxa-2-azahexadecan-16-yl}-2-methyl-8-[4-(trifluoromethyl)phenyl]-2H,8H-pyrazolo[3,4-b]indole-5-carboxamide]: the DC50 was less than 100 nM at TEAD1 in SK-HEP1 cells (setting [1]) and 100 to 1000 nM at TEAD1 in NCI-H226 cells (setting [2]).

For the compound `Cn1cc2c3cc(C(=O)NCCOCCOCCOCCOCCOCCOCCNc4cccc5c4C(=O)N(C4CCC(=O)NC4=O)C5=O)ccc3n(-c3ccc(C(F)(F)F)cc3)c2n1` (stereo not shown) [Compound 87, N-(20-{[2-(2,6-dioxopiperidin-3-yl)-1,3-dioxo-2,3-dihydro-1H-isoindol-4-yl]amino}-3,6,9,12,15,18-hexaoxaicosan-1-yl)-2-methyl-8-[4-(trifluoromethyl)phenyl]-2H,8H-pyrazolo[3,4-b]indole-5-carboxamide], the DC50 on TEAD1 in SK-HEP1 cells (setting [1]) and on TEAD1 in NCI-H226 cells (setting [2]) was less than 100 nM throughout.
